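Growth conditions: 96-well plates. Treatment: test compound, 48 hours, 5 concentrations. Analysis: linear interpolation between bracketing concentrations; unreached endpoints set to highest concentration. GI50 is the concentration that inhibits growth by half.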 Activity calls are given as the source filed them. Cut-off read from the data, not from the text of the source: active = GI50 up to about 1.1 µM and inactive = higher.

Holding throughout (test): growth of human tumour cells (NCI), 48 h
For test [1], the system named is NCI-H460.
Test [2] deals with 786-0.
Test [3] has as its system A498.
Test [4] relates to MOLT-4.
The test system of test [5] is HOP-92.
Test [6] deals with HCC 2998.
The subject of test [7] is UO-31.
In test [8] the test system is HCT-116.
Test [9] concerns TK-10.
Test [10] concerns EKVX.
Test [11] has as its system HCT-15.
Test [12] deals with OVCAR-3.
In test [13] the test system is NCI-H226.
Test [14] has as its system OVCAR-8.
Test [15] has as its system SK-OV-3.
In test [16] the test system is RXF 393.
Test [17] has as its system SK-MEL-28.
Test [18] relates to NCI-H23.
Test [19] has as its system A549.
Test [20] deals with MDA-MB-231.

As to `O=c1[nH]nc2c3n[nH]c(=O)n3c3ccccc3n12`, the GI50 in test [1] is > 100 µM (inactive); in test [2], > 100 µM (inactive); in [3], 47.1 µM (inactive); in test [4] it was > 100 µM (inactive); in test [5], 63.7 µM (inactive); in test [6] it was > 100 µM (inactive). Also, the GI50 is 49.3 µM (inactive) in test [7]; > 100 µM (inactive) in test [8]; > 100 µM (inactive) in [9]; 93.8 µM (inactive) in test [10]; above 100 µM in test [11]; > 100 µM (inactive) in [12]. The GI50 in [13] was 50.1 µM (inactive); in test [14], > 100 µM (inactive); in test [15] it was > 100 µM (inactive); in test [16] it was > 100 µM (inactive); in [17], > 100 µM (inactive); in test [18], > 100 µM (inactive). Besides, the GI50 in test [19] is > 100 µM (inactive).
Consider `COC(=O)CCC(=O)NC1c2cccc3cccc(c23)Cn2c(=O)n(C)c(=O)n21` (stereo not drawn), for which the GI50 in test [20], in test [1], in test [2], in [4], in [5] and in test [6] was > 100 µM (inactive) each time. In addition, the GI50 in [7] is > 100 µM (inactive); in test [8], > 100 µM (inactive); in test [9] it was > 100 µM (inactive); in test [10], > 100 µM (inactive); in test [11] it was above 100 µM; in [12], > 100 µM (inactive). In addition, the GI50 in test [14], in [15], in [16], in test [17], in [18] and in [19] was > 100 µM (inactive) throughout.
Take `COc1ccc2oc(=O)c(-c3csc(-c4ccccc4)n3)cc2c1`: the GI50 was 43.4 µM (inactive) in test [20]; 54 µM (inactive) in test [1]; 17.9 µM (inactive) in test [2]; > 100 µM (inactive) in test [4]; 24.3 µM (inactive) in test [5]; 95.7 µM (inactive) in test [6]. Also, the GI50 in test [7] is 24 µM (inactive); in test [8] it was 35.6 µM (inactive); in [9] it was 22.9 µM (inactive); in test [10] it was 41.4 µM (inactive); in [11] it was above 100 µM; in test [13] it was 39.2 µM (inactive). The GI50 in test [15] is 17.3 µM (inactive); in test [16], 24.9 µM (inactive); in test [17], > 100 µM (inactive); in test [19], 64.7 µM (inactive).
In the case of `O=c1[nH]nc(Cc2ccccc2)n1/N=C/c1ccco1`, the GI50 in test [20] was > 100 µM (inactive); in [1], > 100 µM (inactive); in [2] it was > 100 µM (inactive); in test [3], 45.9 µM (inactive); in test [4] it was 99.5 µM (inactive); in test [6] it was > 100 µM (inactive). Moreover, the GI50 in test [7] is > 100 µM (inactive); in [8], > 100 µM (inactive); in [10] it was > 100 µM (inactive); in test [11], above 100 µM; in test [12], > 100 µM (inactive); in [13] it was > 100 µM (inactive). Also, the GI50 is > 100 µM (inactive) in test [14]; > 100 µM (inactive) in test [15]; 24 µM (inactive) in [16]; > 100 µM (inactive) in [17]; > 100 µM (inactive) in test [18]; > 100 µM (inactive) in test [19].
On to `COC(=O)C(=O)C(C(=O)C(=O)Nc1cccc([N+](=O)[O-])c1)c1nc2ccc(Cl)cc2nc1O` (stereo not drawn), for which the GI50 in test [20] was 65.3 µM (inactive); in [1] it was > 100 µM (inactive); in [2], > 100 µM (inactive); in test [4] it was > 100 µM (inactive); in test [5], > 100 µM (inactive); in [6], > 100 µM (inactive). In addition, the GI50 in [7] was 36.7 µM (inactive); in [8], > 100 µM (inactive); in [9], > 100 µM (inactive); in test [10] it was 18.1 µM (inactive); in test [11], above 100 µM; in [12] it was > 100 µM (inactive). The GI50 is 82.6 µM (inactive) in [13]; > 100 µM (inactive) in test [14]; > 100 µM (inactive) in test [15]; > 100 µM (inactive) in [16]; > 100 µM (inactive) in test [17]; > 100 µM (inactive) in test [18]. The GI50 in test [19] was > 100 µM (inactive).
Consider `O=c1cc(-c2ccccc2)oc2c(-c3cc(Cl)cc4c(=O)cc(-c5ccccc5)oc34)cc(Cl)cc12`, for which the GI50 in test [20] was 32.7 µM (inactive); in test [1], 22.6 µM (inactive); in [2], 27.4 µM (inactive); in [3], 16.1 µM (inactive); in test [4] it was 10.2 µM (inactive); in test [6] it was 47.9 µM (inactive). Further, the GI50 in test [7] is 16.8 µM (inactive); in test [9], 45 µM (inactive); in test [10], 22.2 µM (inactive); in test [11], 29.5 µM; in test [12] it was 24.3 µM (inactive); in [13], 21.5 µM (inactive). Further, the GI50 in test [14] was 28.9 µM (inactive); in [15], 16.7 µM (inactive); in test [16] it was 26.2 µM (inactive); in [17], 35 µM (inactive); in test [18], 25 µM (inactive); in test [19] it was 29.1 µM (inactive).
Consider `O=C1Nc2ccccc2/C1=N/Nc1nc(-c2ccc(Br)cc2)cs1`, for which the GI50 was 17.5 µM (inactive) in test [20]; 21.4 µM (inactive) in [1]; 17.3 µM (inactive) in [2]; 74.8 µM (inactive) in test [4]; 11.4 µM (inactive) in test [5]; 31.8 µM (inactive) in test [6]. Also, the GI50 in test [7] was 10.3 µM (inactive); in test [8] it was 26.7 µM (inactive); in [9], 28.6 µM (inactive); in [10] it was 7.85 µM (inactive); in test [11], 19.4 µM; in test [12], 20.7 µM (inactive). For the same compound, the GI50 in test [14] is 19.5 µM (inactive); in test [15] it was 23.7 µM (inactive); in test [16], 43.9 µM (inactive); in [17], 12.6 µM (inactive); in [18] it was 27.2 µM (inactive); in [19], 25.2 µM (inactive).
As to `O=C1C=C(Nc2ccccc2C(=O)CC(=O)C(=O)Nc2cccc([N+](=O)[O-])c2)c2ccccc2C1=O`, the GI50 in test [1] is 93.3 µM (inactive); in test [2] it was 29.4 µM (inactive); in test [3], > 100 µM (inactive); in test [4], 4.28 µM (inactive); in [5], 37.1 µM (inactive); in test [6] it was > 100 µM (inactive). Moreover, the GI50 in [7] was 34.9 µM (inactive); in test [8], 20.7 µM (inactive); in [9], > 100 µM (inactive); in test [10] it was > 100 µM (inactive); in test [11] it was 23.8 µM; in test [12] it was 14.2 µM (inactive). Further, the GI50 in test [13] was 59.3 µM (inactive); in [14] it was 28 µM (inactive); in [15] it was > 100 µM (inactive); in [16], 46.3 µM (inactive); in [17], 46 µM (inactive); in test [18] it was 26.9 µM (inactive). For the same compound, in test [19], the GI50 is 83.9 µM (inactive).
As to `CN(C)c1ccc(/C=N/CC2CCCN3CCCCC23)cc1` (stereo not drawn), the GI50 in [20], in test [1], in [2], in test [6], in test [7] and in test [8] was > 100 µM (inactive) each time. Further, the GI50 in test [9] is > 100 µM (inactive); in test [10], > 100 µM (inactive); in test [11], above 100 µM; in [12] it was > 100 µM (inactive); in test [13], > 100 µM (inactive); in test [14], > 100 µM (inactive). For the same compound, the GI50 in [15] is > 100 µM (inactive); in test [16], 47.3 µM (inactive); in test [18] it was > 100 µM (inactive); in test [19], > 100 µM (inactive).
In the case of `FC(F)(F)c1cnc(N/N=C(/c2ccccc2)c2ccccn2)c(Cl)c1`, the GI50 in [20] was 5.57 µM (inactive); in test [1], 3.27 µM (inactive); in test [2], 4.12 µM (inactive); in test [4] it was 2.67 µM (inactive); in test [5], 8.75 µM (inactive); in test [6], 5.92 µM (inactive). For the same compound, the GI50 in [7] was 4.94 µM (inactive); in test [8], 3.26 µM (inactive); in test [10], 3.43 µM (inactive); in test [11], 1.98 µM; in test [12], 3.37 µM (inactive); in test [13] it was 13.2 µM (inactive). Besides, the GI50 is 2.39 µM (inactive) in test [14]; 4.76 µM (inactive) in [15]; 12.3 µM (inactive) in test [16]; 11.4 µM (inactive) in test [17]; 7.26 µM (inactive) in test [18]; 3.53 µM (inactive) in test [19].
Consider `COc1ccc(/C=C/C(=O)/C=C/c2ccc(OC)cc2OC)c(OC)c1`, for which the GI50 in [20] is 29.9 µM (inactive); in test [1], 5.08 µM (inactive); in [2], 5.81 µM (inactive); in [4], 4.8 µM (inactive); in [5], 18.6 µM (inactive); in [6] it was 3.23 µM (inactive). Moreover, the GI50 in test [7] was 13.6 µM (inactive); in test [8], 4.34 µM (inactive); in test [9], 14.5 µM (inactive); in [10] it was 9.08 µM (inactive); in [11] it was 3.75 µM; in test [12] it was 2.76 µM (inactive). For the same compound, the GI50 was 12.9 µM (inactive) in test [13]; 11.6 µM (inactive) in test [14]; 7.35 µM (inactive) in [15]; 3.24 µM (inactive) in test [16]; 4.83 µM (inactive) in [17]; 10.2 µM (inactive) in [18]. Further, the GI50 in test [19] was 14.4 µM (inactive).

The record behind these values is ChEMBL document CHEMBL1201862, “PubChem BioAssay data set” (2004).
